{
  "source": "patent US8278086B2",
  "about": "“Enhancement of vanadium-containing phosphatase inhibitors” (Roche Diagnostics Operations, Inc., priority 2007, dated 2012)",
  "key": {"[1]": {"tested_on": "phosphatases in insect cell (SF9) lysate", "assay": "Inhibition of phosphatases in insect cell lysate", "assay_type": "biochemical", "conditions": "1 mM orthovanadate (alone or with 27 mM mannitol), FIG. 4", "experimental": "270 mg insect cells (SF9) were collected, washed 3 times with 50 mM Hepes, 50 mM NaCl pH 7.0 and lysed using 2.5 ml M-Per (Pierce) for 10 min. After centrifugation the lysate was collected as the supernatant.\n(§1) Subsequently, an aliquot of 10 μl was transferred from each mixture into a well of a microwell plate. 5 μl of a solution of a test peptide (R-R-L-I-E-D-A-E-pY-A-A-R-G (SEQ ID NO: 1); 1 mM in water) and 10 μl of a buffer containing 0.1 mM CaCl2, 50 mM Tris pH 7.0 were added to each well and incubated for 30 min at 37° C. Free phosphate resulting from the enzymatic hydrolysis was then detected via addition of 100 μl of a 1 M HCl solution additionally containing 0.034% [w/v] malachite green, 10 mM sodium molybdate and 3.4% [v/v] ethanol. The detection was performed for 10 min at RT while constantly agitating the microwell plate. Relative concentrations of free phosphate were detected following the determination of the extinction (620 nm) of each reaction well."}, "[2]": {"tested_on": "phosphatases in COS7 cell lysate", "assay": "Inhibition of phosphatases in COS7 cell lysate", "assay_type": "biochemical", "conditions": "1 mM orthovanadate (alone or with 27 mM mannitol), FIG. 5", "experimental": "COS7 cells were collected, washed 3 times with 50 mM Hepes, 50 mM NaCl pH 7.0 and lysed using 5 ml M-Per (Pierce) for 10 min. After centrifugation the lysate was collected as the supernatant.\nas §1, with “to” for “into a well of”, “1M” for “1 M”, “3.4” for “3.4%”"}, "phosphatase": {"tested_on": "phosphatase", "conditions": "in the presence of complex-forming reagents like EDTA; cited from earlier work"}},
  "data": [
    {"smiles": "[O]=[V]([O-])([O-])[O-]", "note": "[Na3VO4, orthovanadate]", "values": [
      {"measurement": "phosphatase activity (residual)", "setting": "[1]", "value": 14, "unit": "%"},
      {"measurement": "phosphatase activity (residual)", "setting": "[2]", "value": 52, "unit": "%"},
      {"measurement": "factor by which the phosphatase inhibiting effect is reduced", "setting": "phosphatase", "value": "about 1,000"}
    ]}
  ]
}
